Legend:
[1] = test system: K562 human chronic myeloid leukemia cells; experiment: cells; format: cell-based
Description: The cytotoxicity was determined using a MTT tetrazolium dye assay (42). […] The incubation was terminated by centrifugation (5 minutes, 300 g) and the cells were washed once with drug-free medium. Following the appropriate drug treatment, the cells were transferred to 96-well microtitre plates, 10^4 cells per well, 8 wells per sample. Plates were then kept in the dark at 37° C. in a humidified atmosphere containing 5% CO2. […] Following incubation of the plates for 4 days (to allow control cells to increase in number by 10 fold) 20 μL of a 5 mg/mL solution of MTT in phosphate buffered saline was added to each well and the plates further incubated for 5 hours. The plates were then centrifuged for 5 minutes at 300 g and the bulk of the medium pipetted from the cell pellet leaving 10-20 μL per well. 200 μL DMSO was added to each well and the samples agitated to ensure complete mixing. The optical density was the read at a wavelength of 550 nm on a Titertek Multiscan ELISA plate reader, and the dose-response curve was constructed.

[2] = test system: panel of 60 human cancer cell lines; details: 48 hour exposure
L1210 leukemia cells = experiment: cells; format: cell-based, murine; details: Mus musculus; L1210, 72 hr incubation
Description: (§1) The P815 and L1210 cell lines were obtained from American Type Tissue Culture Collection (ATCC). The cell lines were grown in Delbecco's Modified Eagle Medium (DMEM, Atlanta Biologicals) supplemented with 10% fetal bovine serum, Hepes Buffer (2 mM, Mediatech Cellgro, 25-060-Cl), L-Glutamine (2 mM, Mediatech Cellgro), and penicillin/streptomycin (50,000 units penicillin, […] streptomycin, Atlanta Biologicals). Cells were maintained at 37° C. in a 5% humidified CO2 atmosphere. […] This cell suspension (100 μL) was added to 96 well flat-bottom cell culture plates. At this concentration, 80,000 cells were seeded in each well. Drug solutions (dissolved in DMSO and diluted in DMEM) were added to each well (5 μL/well) resulting in final concentrations ranging from […] to 1×10^−12 M. Quadruplicate wells were prepared for each drug concentration. The plates were incubated for 72 hr at 37° C. in a 5% CO2 atmosphere. MTT (3-(4,5-dimethylthiazol-2-yl)-2,5-diphenyl tetrazolium bromide) was dissolved in PBS (5 mg/ml). After the indicated cell incubation period, 10 μL of this stock MTT solution was added to each well and the plates were further incubated for 4 h at 37° C. in a 5% CO2 atmosphere. […] The contents of the well were mixed thoroughly by pipetting the cell suspension up and down and the plates were allowed to sit at room temperature for 15 min in order to allow for full development of the purple color. The plates were read on a Dynatech Plate Reader, utilizing Dynex Revelation 3.2 software, with a test wavelenth of 570 nm and a reference wavelength of […].

L1210 leukemia = details: carzelesin 400 μg/kg, adozelesin 100 μg/kg; cited from earlier work
melanoma = details: phase I clinical trial; cited from earlier work
plasmid pBR322 DNA = experiment: Taq polymerase stop assay; format: biochemical
[3] = mice, therapeutic doses; cited from earlier work
[4] = test system: mouse L1210 leukemia cells; details: cited from earlier work
P815 mastocytoma cells = experiment: cells; format: cell-based, murine; details: Mus musculus; P815, 72 hr incubation
Description: as §1

[5] = test system: human tumor cells cultivated in polyvinylidene fluoride (PVDF) hollow fibers; experiment: Hollow fiber assay for preliminary in vivo testing; parameters: species or system mice
Description: For these assays, human tumor cells are cultivated in polyvinylidene fluoride (PVDF) hollow fibers, and a sample of each cell line is implanted into each of two physiologic compartments (intraperitoneal and subcutaneous) in mice. […] Three mice are treated with potential antitumor compounds at each of 2 test doses by the intraperitoneal route using a QD×4 treatment schedule. Vehicle controls consist of 6 mice receiving the compound diluent only. The fiber cultures are collected on the day following the last day of treatment. To assess anticancer effects, viable cell mass is determined for each of the cell lines using a formazan dye (MTT) conversion assay. From this, the %T/C can be calculated using the average optical density of the compound treated samples divided by the average optical density of the vehicle controls. In addition, the net increase in cell mass can be determined for each sample as a sample of fiber cultures are assessed for viable cell mass on the day of implantation into mice. Thus, the cytostatic and cytocidal capacities of the test compound can be assessed.
The data are reported as %T/C for each of the 2 compound doses against each of the cell lines with separate values calculated for the intraperitoneal and subcutaneous samples.
The intraperitoneal and subcutaneous samples are scored separately so that criteria (1) and (2) can be evaluated.

[6] = 72 h, continuous exposure (3 days)

## COc1cc2cc(C(=O)Nc3cc(O)c4ccccc4c3CCCl)[nH]c2c(OC)c1OC [Compound 26, 4-(2-Chloroethyl)-3-(5,6,7-trimethoxyindole-2-carboxamido)-1-naphthol]
[1]; 1 hour exposure
  IC50: 17 nM
[1]; [6]
  IC50: 150 nM
[2]
  cytotoxic activity in the NCI screen: activity in the micromolar range
L1210 leukemia cells
  IC50: 55 nM

## Cc1c[nH]c2c1[C@@]13C[C@@H]1CN(C(=O)c1cc4cc(NC(=O)c5cc6ccccc6o5)ccc4[nH]1)C3=CC2=O [adozelesin]
L1210 leukemia
  ILS: 90±11 % ILS
melanoma
  clinical response: partial response on a melanoma patient

## 4-(2-Bromoethyl)-3-[5-(5-benzofuran-2-carboxamido)indole-2-carboxamido]phenol [Compound 2]
Plasmid pBR322 DNA
  efficiency in alkylating DNA compared with chloro-compound 1: less efficient in alkylating DNA

## COC(=O)c1cc2c([nH]1)C(=O)C=C1N(C(=O)c3cc4cc(OC)c(OC)c(OC)c4[nH]3)CC3CC123 (single isomer, unassigned; (+)) [DUMSA, (+)-duocarmycin SA]
[3]
  delayed lethality: devoid of this toxic side effect

## (+)-CC1065
[3]
  delayed lethality: delayed lethality in mice at therapeutic doses
[4]; L1210
  IC50: 0.02 nM
[4]; growth of mouse L1210 leukemia cells in culture
  IC50 values: pM range

## COc1cc2cc(C(=O)Nc3cc(N)ccc3CCCl)[nH]c2c(OC)c1OC [Compound 24, 4-(2-Chloroethyl)-3-(5,6,7-trimethoxyindole-2-carboxamido)aniline]
[1]; [6]
  IC50: 1300 ± 300 nM

## COc1cc2cc(C(=O)Nc3cc(N)c4ccccc4c3CCCl)[nH]c2c(OC)c1OC [Compound 25, 4-(2-Chloroethyl)-3-(5,6,7-trimethoxyindole-2-carboxamido)-1-naphthylamine]
[1]; 1 hour exposure
  IC50: 18 nM
[1]; [6]
  IC50: 45 nM
[2]
  cytotoxic activity in the NCI screen: activity in the micromolar range
P815 mastocytoma cells
  IC50: 68 nM
L1210 leukemia cells
  IC50: 180 nM
[5]; hollow fiber studies
  cell kill: cell kill observed
[5]; subcutaneous fibers
  SC score: 8

## CCN(CC)c1ccc2cc(C(=O)Nc3ccc4[nH]c(C(=O)N5C[C@@H](CCl)c6c5cc(OC(=O)Nc5ccccc5)c5[nH]cc(C)c65)cc4c3)oc2c1 [carzelesin]
L1210 leukemia
  ILS: 150±8 % ILS

From US20030073731A1, “Compositions and methods of the use thereof achiral analogues of CC-1065 and the duocarmycins” (priority 2000, published 2003)
